The conditions of series [1]: Han et al FASEB J. 2017; cited from earlier work.
A short description of series [2]: Solubility assessment in water. The class given is physicochemical. As to conditions: water; 0.4 μg/ml at molecular weight 308; read-out: solubility, concentration. How it is done: Water was added slowly to 4.7 mg of compound 5 until 4.7 ml of water was added at which point the phosphate fully dissolved. The pH of the solution was estimated using litmus paper and estimated to be <3. Without a counterion, the molecular weight of the phosphate is 418 m. Therefore, at 1 mg/ml, the concentration is 2.4 mM.
For comparison, compound 3 is soluble to 0.4 μg/ml (Han et al FASEB J. 2017 31(2):491-504), which at a molecular weight of 308 is 1.3 μM.
Compound 5 was suspended in water (at weight to give a final concentration of 10 mM) and then 2 eq NaHCO3 was added.

The nature of series [3]: Levels of compound 3 and compound 5 in rabbit nasal lavage and serum after nasal administration of compound 5. The class given is in vivo. The method, then: Six (6) female NZW rabbits were employed in this study. Rabbits were obtained from Covance (Denver Pa.). Rabbits were between approximately 10 and 12 months of age at the time of study start. At time point 0, all animals received 50 μL of solution containing rabbit IL4 (RND Systems/Biotechne) and human IL13 (PreproTech) at a concentration of 0.25 mg/mL each in 0.5×PBS containing 12.5 mg/mL BSA per nostril. This was administered intranasally via a venous catheter attached to a micropipette. The animal was positioned in a supine manner and the venous catheter inserted into the nostril. The volume was introduced into the nasal cavity and the same procedure was repeated with the other nostril.
At the 2, 4, and 6 hour time points, animals in Group 1 (n=3) received 0.2 mL of vehicle (0.9% saline) per nostril and the animals in Group 2 (n=3) received 0.2 mL of compound 5 (10 mM) in vehicle per nostril. The dosing of vehicle and compound 5 proceed as follows: The animal was positioned in a supine manner in a restraint bag and a mucosal atomization device (MAD) attached to the pre-filled tuberculin syringe was inserted into the nostril and introduced into the nasal cavity. The same procedure was repeated with the other nostril.
At the 8 hour time point, all the nostrils of all animals were lavaged with 1 mL of 0.9% saline per nostril and the resulting fluid collected. Intranasal lavages were performed as follows: The animals were held sternally in a restraint bag with the head over the edge of the table and the rear of the animal elevated higher than the head. A flexible venous catheter was inserted in the nostril until resistance was felt. The 1 mL of saline was introduced through the catheter into the nasal cavity. The nasal lavage returned from the nostril was collected via a funnel into a conical tube and the approximate volume recorded. This procedure was repeated for the other nostril. The lavage was stored at approximately −70° C. until analysis. Following (<10 minutes) the 8 hour time point lavage, blood was collected from all animals, processed to serum, and frozen at approximately −70° C. until analysis.
Nasal lavage and serum samples were analyzed for the levels of compound 3 and compound 5. Frozen tissue samples were weighed (20-120 mg) and placed into 2 mL CK14 homogenizing tubes (Bertin) and 500 μL of methanol containing 1 mM butylated hydroxy toluene (BHT) and 1 mM tris(2-carboxyethyl)phosphine (TCEP) was added. The tubes were placed in a Precellys 24 tissue homogenizer (Bertin) and run at 6000 rpm six times for 20 seconds with a 10 second pause between cycles. The tubes containing the homogenized tissue were then placed in a microfuge and centrifuged for 5′ at 14,000 rpm to pellet any insoluble material. Compound 3 was quantified using LC-MS/MS (QTrap5500, Applied Biosystems). Q1/Q3 Masses: 306.00/135.00 using a deschloro derivative of compound 3 (lacking chlorine at 4 position of pyrazole ring) as an internal standard. The Q1/Q3 Masses are 272.00/101.00 Da for the internal standard. Compound 3 was extracted using liquid/liquid extraction with methanol as a diluent. […] Compound 5 was quantified using LC-MS/MS (QTrap5500, Applied Biosystems). […] Compound 5 was detected in the lavage samples from Group 2 animals (rabbit 1, rabbit 2, rabbit 3) and ranged in average concentration from 0.016 uM-0.35 uM. […]

≈ marks a conversion by molar mass, not a printed value. Like-named read-outs stand apart in the source and are kept apart here.

In the case of `O=C(Nc1ccc(F)cc1Cl)c1n[nH]c(Cl)c1Cl` [compound 3, 4,5-dichloro-N-(2-chloro-4-fluorophenyl)-1H-pyrazole-3-carboxamide], the values for the solubility in series [1] and in series [2] were 0.4 µg/mL (≈ 1.3 µM) and 1.3 µM (≈ 0.401 µg/mL), respectively. The concentration at 8 h in series [3] (female, NZW, rabbit, nasal lavage, other: intranasal (mucosal atomization device), rabbits dosed with compound 5, 0.2 mL of 10 mM per nostril at 2, 4, 6 hours, lavage at 8 hours, range over 3 rabbits, read-out: average concentration of compound 3 in nasal lavage (FIG. 8)) was 890 to 3100 nM. Further, the “level in serum samples” value in series [3] (rabbits, intranasal compound 5 10 mM, blood after the 8 hour lavage) is “no quantifiable”.

These data come from patent US11116778B2, “Prodrugs of ALOX-15 inhibitors and methods of using the same” (EMPIRICO INC., priority 2019, dated 2021).
